Source: US9056814B2, “Polymorphic form of a calcimimetic compound” (LEO PHARMA A/S, priority 2010, dated 2015)

Experiments:
Assay type in all cases: physicochemical
[1] = Competitive slurrying experiments (XRPD follow-up); settings: for Polymorphic stability/conversion in competitive slurrying: MeOH suspension 30 mg/mL, 14 days, 5° C., room temperature and reflux (65° C.)
Procedure: The suspensions at 5° C. and r.t. were prepared in 4 mL vials with caps and equipped with a small magnetic stirrer bar. The suspensions were stirred at approximately 500 rpm. for two weeks. The suspensions prepared at high temperature were prepared in 10 mL Erlenmeyer flask equipped with a magnetic stirrer bar and reflux condenser.
Samples of the suspensions were taken at time=0, 1 day, 7 days and 14 days and investigated by XRPD.

[2] = Stress stability test for solid state transformation; settings: 60° C., 60° C./75% relative humidity and 80° C./75% relative humidity; 4 weeks
Procedure: Polymorph Form C, Form X and mixtures of the two polymorphic forms C+X have all been tested at different conditions of temperature and relative humidity for signs of solid state transformation. The stress stability test was carried out at three sets of conditions: 60° C., 60° C./75% relative humidity and 80° C./75% relative humidity, and samples were analyzed after 1, 2 and 4 weeks, ie. after 7, 14 and 28 days.
One 1.8 ml amber screw top vial (27267-U, Supelco) containing between 50 and 100 mg {4-[(1R,3S)-3-((R)-1-Naphthalen-1-yl-ethylamino)-cyclopentyl]-phenoxy}-acetic acid was tested per individual set of conditions. The vials to be tested at 60° C. were closed with a PTFE lined black polypropylene solid cap (27416, Supelco) and placed in a thermostated heating cabinet. The vials to be tested at 60° C./75% relative humidity and 80° C./75% relative humidity were placed uncapped in a desiccator containing a saturated NaCl solution. The desiccator was subsequently placed in a thermostated heating cabinet.
The samples were analyzed at 1, 2 and 4 weeks for • 1. Visual appearance • 2. HPLC assay and impurities • 3. Polymorph characterization

[3] = Aqueous solubility as a function of pH; settings: room temperature, conclusion from Table 6
Procedure: The aqueous solubility of Form C and Form X was determined as a function of pH at 25° C. in 0.1N HCl (pH 1.0) and in Sorensen phosphate buffers at pH 2.0, 4.0, 6.0 and 8.0. For each pH value two individual determinations were made. Form C or Form X was weighed out (11 mg for pH 1, 4 mg for pH 2-8) in scintillation vials and 4 ml 0.1N HCl or buffer was added. The vials were shaken for 24 hours at 25° C. After 24 hours it was checked that the vial still contained undissolved material. The suspensions were filtered through a 0.45 μm filter, which was first saturated with app. 0.5 ml filtrate. The resulting filtrates were diluted and analyzed by HPLC vs. a standard curve.

[4] = Thermo gravimetric analysis (TGA); settings: Graph 4a (Form C sample), ±2° C.
Procedure: Thermo gravimetric analysis (TGA): TGA experiments were conducted using a Perkin Elmer Pyris 1 TGA instrument. About 10-20 mg of sample was loaded into a ceramic pan for the measurements. The sample temperature was ramped from 25 to 350° C. at 10° C./min. Nitrogen was used as the purge gas at a flow rate of 40 mL/min.

[5] = Transition temperature of the enantiotropic polymorphs from melting enthalpy and melting points; settings: estimated from melting enthalpy and melting points of Form C and Form X
Procedure: From careful measurements of melting enthalpy and melting points of both forms, the transition temperature has been estimated to lie between 120 to 145° C.
Differential scanning calorimetry (DSC): DSC experiments were carried out using a Perkin Elmer DSC8500 system. About 0.5-3 mg of sample was used for the measurements. An aluminium pan was used for the analysis and was sealed by applying pressure by hand and pushing each part of the pan together. The temperature was ramped from −60 to 270° C. at 20° C./min. Nitrogen was used as the purge gas with a flow rate of 20 mL/min.

4 week stress stability test, solid state transformation [2] | Polymorphic conversion in competitive slurrying ([1]; competitive slurrying at 110° C.) | Solubility of Form X relative to Form C [3] | Transition temperature at which the two polymorphs are equally stable ([1]; lower bound from competitive slurrying of Form C and Form X) | Temperature below which stable towards degradation (TGA trail) [4] | Transition temperature (estimated) [5] | Structure (SMILES) | Polymorphic stability/conversion in competitive slurrying [1] | Polymorphic stability/conversion in competitive slurrying ([1]; listed as mixtures of Form X+C)
without any solid state transformation |  |  |  |  |  | C[C@@H](NC1CCC(c2ccc(OCC(=O)O)cc2)C1)c1cccc2ccccc12 (stereo in doubt) [Form C, {4-[(1R,3S)-3-((R)-1-Naphthalen-1-yl-ethylamino)-cyclopentyl]-phenoxy}-acetic acid] | stable at all three temperatures | 
without any solid state transformation | transformation of Form X to Form C | higher compared to Form C |  |  |  | C[C@@H](NC1CCC(c2ccc(OCC(=O)O)cc2)C1)c1cccc2ccccc12 (stereo in doubt) [Form X, {4-[(1R,3S)-3-((R)-1-Naphthalen-1-yl-ethylamino)-cyclopentyl]-phenoxy}-acetic acid] | convert to pure Form C at all three temperatures | 
without any solid state transformation |  |  | above 110 °C | below 255 °C | 120 to 145 °C | C[C@@H](NC1CCC(c2ccc(OCC(=O)O)cc2)C1)c1cccc2ccccc12 (stereo in doubt) [{4-[(1R,3S)-3-((R)-1-Naphthalen-1-yl-ethylamino)-cyclopentyl]-phenoxy}-acetic acid] |  | convert to pure Form C at all three temperatures
